Data taken from patent US20140228435A1, “COMPOSITION AND METHOD OF SYNTHESIZING A BIOMOLECULE AND ITS THERAPEUTICS APPLICATIONS” (priority 2013, published 2014).
Values joined by “and” are separate entries in the source; they are usually repeats but may differ in a detail not shown here. Identical values can stand only once. Like-named read-outs stand apart in the source and are kept apart here.

Columns and labels:
[1] = test system: fatty tissue; assay: Triceps skin fold (TSF) thickness by caliper at right mid-upper arm, one-year volunteer trial; assay type: in vivo, human volunteers
Experimental: (§1) According to an embodiment of the embodiments herein, N(omega)′-protonated L-arginine was chemically converted into J-Factor ex-vivo. To prevent synthetic J-factor from damaging the alimentary canal after oral administration, it was formulated at a pH value that is safe for the canal like 7.0 which is the safest pH. Then, converted/synthetic produced ex-vivo J-Factor was orally administrated to a small group of 11 volunteers for one year. Each volunteers were given 0.5 mg per 10 days (=1.5 mg/month) and photographs were taken in each case to record the changes in their faces and heads.
(§2) In addition, to eliminate other factors probably influencing results during the trial, they were prevented from exercising and changing previous food schedule such as meat except the J-Factor. Their intake of meat was at least 200 gram per day in the food schedule before the trial and wouldn't change during the trial. Because the amount of N(omega)′-protonated L-arginine in raw meat is more than 1%, their intake of N(omega)′-protonated L-arginine was more than 60000 mg per month through meat without change before and during the trial, which was more than 40000 times the J-Factor intake. Anyway, one-third of N (omega)′-protonated L-arginine is chemically converted into J-Factor and they can't separated from each other. Thus, regardless of food L-arginine, Each volunteer took N(omega)′-protonated L-arginine 3 mg per month together with J-Factor that was less than 1/20000 times the N(omega)′-protonated L-arginine intake through meat without change before and during the trial. Therefore, the physical changes observed in the volunteers weren't caused by N(omega)′-protonated L-arginine.
Anyway, the triceps skin fold (TSF) thickness was measured in millimetres with the caplier at the mid-back of the right mid-upper arm [mid-point between the tip of the shoulder and the tip of the elbow (olecranon process and the acromium)] to evaluate the change in fatty tissue during the trial. The amounts measured and calculated are listed below: […]

[2] = test system: muscle (muscular hypertrophy); assay: Mid-upper arm circumference (MUAC) and muscle circumference (MUAMC), muscular hypertrophy, one-year volunteer trial; assay type: in vivo, human volunteers
Experimental: as §1, §2
It's derived in cm from the MUAC (mid-upper arm circumference) in cm and the TSF (triceps skin fold) in mm according to the formula “MUAMC=MUAC−(π×TSF/10)”. Finally, the following numbers were measured and concluded: […]

[3] = test system: eye's central vision; assay: Eye's central vision examined with the E-chart, one-year volunteer trial; assay type: in vivo, human volunteers; set-up: scale not given here; settings: one value per volunteer
Experimental: as §1, §2
Eye' central vision was examined with the E-chart and the following numbers were measured and concluded: […]

[4] = test system: IGF-1mRNA; assay: Expression of IGF-1mRNA in fatty tissue of mid-upper arm by real-time RT-PCR; assay type: in vivo, human volunteers
Experimental: as §1
as §2, with “Therefore, the physical changes observed in the volunteers weren't caused by N(omega)′-protonated L-arginine.” left out
It's clear that any composition that stimulates the synthesis and secretion of autocrine-paracrine IGF-1 performs it only through increasing the expression of IGF-1mRNA in the cell. Therefore, the expression of IGF-1mRNA was measured in the fatty tissue at the mid-back of the mid-upperarm of the volunteers by real-time RT-PCR (Reverse transcription-polymerase chain reaction) at the beginning and end of the trial and the following numbers were obtained: […]

[5] = Physical changes observed in volunteers after one year (photographs of faces and heads); assay type: in vivo, human volunteers; settings: each volunteer after one year of oral J-Factor
Experimental: as §1, §2

[6] = Complications and safety, synthetic J-Factor in the 11 volunteers compared with biosynthetic GH; assay type: in vivo, human volunteers
Experimental: as §1
In fact, all of the above mentioned changes help in preventing or limiting the aging signs. The advantage of using ex-vivo synthesized J-Factor of the embodiments herein when compared to biosynthetic GH is shown in the comparative table below: […]

[7] = Acid dissociation constants (pKa), with van't Hoff temperature calculation; assay type: physicochemical
Experimental: Furthermore, the deprotonation of the guanidinium and N(delta)-protonated diaminomethyleneamino groups is endothermic and reversible. Therefore the results are as follows. • 1—At pH less than 7.48 together with 25° C. or less, the concentration of their deprotonated form in the side chain is too little and insignificant to be chemically considered. • 2—Under physiological conditions (pH 7.40 and 37° C.) of a living body, the concentration of L-2-amino-5-diaminomethyleneamino-pentanoic acid not protonated in the side chain and a extremely weak stimulator for autocrine-paracrine IGF-1, is too little and insignificant to stimulates synthesis and secretion of the IGF-1. • 3—At pH less than 7.48 together with 25° C. or less and under physiological conditions (pH 7.40 and 37° C.), 1-arginine and L-2-amino-5-diaminomethyleneamino-pentanoic acid is practically as protonated in the side chain.
In addition, it has a Pka of 8.39 in the protonated 2-amino group at 37° C. calculated based on the integrated form of the van't Hoff equation and ΔH°=43.8 kj/mol=[…] in the deprotonation of the protonated 2-amino group. Consequently, with respect to/regarding the Henderson-Hasselbalch equation, the formula of the J Factor is as follows: • 1—At 25° C., the dominant structural formula of J-Factor at pH more than 2.17 and less than 9.04 is as follows:
Further, in the conversion of N(omega)′-protonated L-arginine to Larginine and a proton, K (equilibrium constant)=Ka (acid dissociation constant). Consequently, the integrated form of the van't Hoff equation is changed as follows:
Log(Ka2/Ka1)=(ΔH°/R)(1/T1−1/T2)
wherein Ka1 is the acid dissociation constant at absolute temperature T1, Ka2 is the acid dissociation constant at absolute temperature T2. Now, the calculated ratios of Ka2 at 100° C., 75° C., 50° C., 37° C. and 30° C. to Ka1 at 25° C. and their pKa's in the conversion are given below, where pKa is a minus the logarithm of the acid dissociation constant. • 1—At 100° C.: […]

[8] = cited from earlier work
[9] = Second trial (second year): J-Factor withdrawn, unconverted N(omega)′-protonated L-arginine given; assay type: in vivo, human volunteers; settings: 1.5 mg per 10 days
Experimental: After the first year, the applicant withdrew J-Factor and would give the initial N(omega)′protonated L-arginine (reactant) not converted to J-Factor 1.5 mg per 10 days to each volunteer without any other changes and wouldn't make them aware, in order to better compare the reactant and J-Factor.

[10] = biosynthetic GH, comparison; cited from earlier work
[11] = sum of 11 volunteers, Start to End
[12] = Start to End (one year), one value per volunteer

NC(N)=NCCCC(N)C(=O)O [J-Factor, N(delta)-protonated L-2-amino-5-diaminomethyleneamino-pentanoic acid]
TSF (mm) End ([1]; J-Factor 0.5 mg per 10 days orally, End = one year after the start, one value per volunteer (11)): 20 mm and 3 mm (2×) and 7 mm and 10 mm (2×) and 12 mm and 14 mm and 13 mm (2×) and 17 mm | TSF (mm) Decrease ([1]; Start to End (one year), J-Factor 0.5 mg per 10 days orally, one value per volunteer): 18 mm and 3 mm and 4 mm (2×) and 6 mm and 5 mm (2×) and 7 mm (3×) and 19 mm | TSF (mm) Decrease, sum [1, 11]: 85 mm | TSF Decrease, percent of sum [1, 11]: (41.7%) | TSF (mm) End, sum ([1]; sum of 11 volunteers, one year after the start (Start sum 207)): 122 mm | MUAMC (cm) End ([2]; MUAMC=MUAC−(π×TSF/10), one year after the start, one value per volunteer): 21.2 cm and 24.7 cm and 28.1 cm and 29.5 cm and 19.9 cm and 27.7 cm and 26.9 cm and 27.2 cm and 24.1 cm and 24.0 cm and 21.6 cm | MUAMC (cm) increase [2, 12]: 1.7 cm and 1.3 cm and 2.0 cm (2×) and 2.1 cm (2×) and 1.1 cm and 2.7 cm and 1.8 cm and 2.8 cm and 2.4 cm | MUAC (cm) End ([2]; right arm, one year after the start, J-Factor 0.5 mg per 10 days orally, one value per volunteer): 27.5 cm and 25.6 cm and 29.0 cm and 31.7 cm and 23.0 cm and 31.5 cm and 30.0 cm and 31.6 cm and 28.2 cm and 29.3 cm and 25.9 cm | MUAMC (cm) increase, sum [2, 11]: 22.0 cm | MUAMC increase, percent of sum [2, 11]: (8.7%) | MUAMC (cm) End, sum ([2]; sum of 11 volunteers, one year after the start (Start sum 252.9)): 274.9 cm | Left Eye' central vision increase ([3]; Start to End (one year)): ZERO (2×) and 1 (4×) and 9 and 3 (2×) and 2 (2×) | Right Eye' central vision increase ([3]; Start to End (one year)): ZERO (3×) and 1 (2×) and 3 and 2 (4×) and 4 | Left Eye' central vision End ([3]; one year after the start): 10 (8×) and 9 and 3 and 5 | Right Eye' central vision End ([3]; one year after the start): 10 (8×) and 8 and 6 and 3 | IGF-1 mRNA increase [4, 12]: yes | IGF-1 production ([4]; conclusion from one-year trial with ex-vivo synthesized J-Factor): stimulated IGF-1 production | IGF-1 mRNA (copy/mg) End ([4]; fatty tissue at mid-back of mid-upper arm, one year after the start, one value per volunteer): 1.8 × 10^7 copy/mg and 7.7 × 10^7 copy/mg and 1.2 × 10^10 copy/mg and 9.2 × 10^6 copy/mg and 7.2 × 10^8 copy/mg and 6.0 × 10^8 copy/mg and 2.1 × 10^9 copy/mg and 1.0 × 10^10 copy/mg and 5.2 × 10^7 copy/mg and 6.3 × 10^6 copy/mg and 1.1 × 10^9 copy/mg | change in fatty tissue e.g. in abdomen [5]: decrease in fatty tissue e.g. in abdomen | eye's central vision [5]: improvement in eye's central vision | hair growth [5]: hair growth | muscular hypertrophy [5]: muscular hypertrophy | tone and color of facial skin [5]: improved tone and color of facial skin | complications such as joint swelling, carpal tunnel syndrome or joint pain ([6]; in the 11 volunteers): invention showed no complications | antigenicity ([6]; synthetic J-Factor): Non-antigenic | diabetogenicity ([6]; synthetic J-Factor): Non-diabetogenic | pKa ([7]; pKa of guanidinium / N(delta)-protonated diaminomethyleneamino group): 11.7 | pKa ([7]; pKa of protonated 2-amino group): 8.39 | pKa of carboxyl group ([8]; room temperature (25° C.)): 2.17 | pKa of guanidinium / N(delta)-protonated diaminomethyleneamino group ([8]; room temperature (25° C.)): 12.48 | pKa of protonated 2-amino group ([8]; room temperature (25° C.)): 9.04

N=C(N)NCCCC(N)C(=O)O [N(omega)′-protonated L-arginine]
physical changes during the second year ([9]; after withdrawal of J-Factor, volunteers not aware): the physical changes would return | IGF-1 production ([9]; conclusion from second trial): don't stimulated IGF-1 production | pKa ([7]; pKa of N(omega)′-protonated guanidino group): 8.3 | pKa of guanidinium / N(delta)-protonated diaminomethyleneamino group ([8]; room temperature (25° C.)): 12.48

NC(N)=O [protonated urea]
pKa ([8]; 25° C., protonated urea): 0.18

Biosynthetic GH: biosynthetic growth hormone, comparator in the advantage table
antigenicity [10]: Antigenic | complications [10]: Joint swelling Carpal tunnel | diabetogenicity [10]: Diabetogenic
